Data from publication PMC3985639, “A widespread bacteriophage abortive infection system functions through a Type IV toxin–antitoxin mechanism” (Nucleic Acids Research, 2014).

Biological target: T1, AbiEii (AbiEii-His6) (Streptococcus agalactiae, UniProt Q8DZ35)
T1 construct: gene abiGII; full-length, C-terminal His6 tag kept, from pRLD56 in E. coli BL21 co-expressing AbiEi (pRLD69), Ni-NTA purified
T1 sequence (Q8DZ35 1-281): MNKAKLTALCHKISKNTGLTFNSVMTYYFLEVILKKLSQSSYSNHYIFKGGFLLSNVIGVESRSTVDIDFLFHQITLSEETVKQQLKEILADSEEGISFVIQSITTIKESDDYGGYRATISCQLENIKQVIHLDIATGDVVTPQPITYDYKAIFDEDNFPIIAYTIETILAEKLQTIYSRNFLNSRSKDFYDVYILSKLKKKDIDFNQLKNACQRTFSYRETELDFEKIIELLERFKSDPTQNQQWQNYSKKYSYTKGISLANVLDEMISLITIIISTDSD
Assay: native PAGE gel shift of [α-32P]-NTP
Assay type: binding
Conditions: labelled compound; 0.65 pmol; 10 mM Tris-HCl, […] MgCl2, 50 mM KCl, pH 8.3, 37 °C, 1 h

| SMILES | native PAGE gel shift of [α-32P]-NTP |
| --- | --- |
| Nc1ncnc2c1ncn2[C@@H]1O[C@H](COP(=O)(O)OP(=O)(O)OP(=O)(O)O)[C@@H](O)[C@H]1O [ATP] | Limited binding to ATP was also observed |
| Nc1nc2c(ncn2[C@@H]2O[C@H](COP(=O)(O)OP(=O)(O)OP(=O)(O)O)[C@@H](O)[C@H]2O)c(=O)[nH]1 [GTP] | Increasing AbiEii-His6 concentrations led to retardation in GTP migration, demonstrating GTP binding |
